Tests used:
[1] = target: T1, human SGLT1 (Homo sapiens, UniProt P13866); experiment: Assay for inhibitory effects on human SGLT1 activity (uptake of methyl-α-D-glucopyranoside); assay type: cell-based; settings: CS1-5-11D cells (CHO-K1 stably expressing human SGLT1); uptake of 1 mM 14C-labeled α-MG, 37° C., 1 hour
T1 construct: expressed in transfected cells
T1 sequence (P13866 1-664): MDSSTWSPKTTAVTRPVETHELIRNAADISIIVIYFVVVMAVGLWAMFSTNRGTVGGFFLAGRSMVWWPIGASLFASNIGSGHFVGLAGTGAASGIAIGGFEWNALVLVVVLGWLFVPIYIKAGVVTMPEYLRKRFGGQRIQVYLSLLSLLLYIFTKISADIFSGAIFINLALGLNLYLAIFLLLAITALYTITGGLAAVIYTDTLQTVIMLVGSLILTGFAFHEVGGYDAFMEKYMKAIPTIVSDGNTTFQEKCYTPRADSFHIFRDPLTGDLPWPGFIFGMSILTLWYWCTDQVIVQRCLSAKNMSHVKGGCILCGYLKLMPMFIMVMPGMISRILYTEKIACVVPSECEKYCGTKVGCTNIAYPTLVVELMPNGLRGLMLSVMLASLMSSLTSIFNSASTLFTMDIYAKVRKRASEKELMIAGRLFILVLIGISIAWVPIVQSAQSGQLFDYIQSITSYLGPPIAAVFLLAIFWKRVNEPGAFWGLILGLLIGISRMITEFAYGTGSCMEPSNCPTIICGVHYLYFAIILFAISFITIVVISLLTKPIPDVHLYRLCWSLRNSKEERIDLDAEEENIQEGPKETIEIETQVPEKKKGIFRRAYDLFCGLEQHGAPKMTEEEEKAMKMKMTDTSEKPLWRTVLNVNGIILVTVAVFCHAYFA
Protocol: Assay for Inhibitory Effects on Human SGLT1 Activity
1) Cloning and Construction of the Vector Expressing Human SGLT1
The cDNA library was prepared for PCR amplification by reverse transcription from total RNA deprived from human small intestine (Ori gene) using oligo-dT as a primer. Using this cDNA library as a template, the DNA fragment coding 1 to 2005 bp of human SGLT1 (ACCESSION: M24847), which was reported by Hediger et al., was amplified by PCR method and inserted into the multi-cloning site of pcDNA3.1(−) (Invitrogen). The DNA sequence inserted was perfectly matched to the previously reported sequence of human SGLT1.
2) Establishment of Cell Line Stably Expressing Human SGLT1
The expression vector of human SGLT1 was digested by Sca I into a linear DNA. The linear DNA was transfected into CHO-K1 cells by means of lipofection (Effectene Transfection Reagent: QIAGEN). Neomycin resistant cell lines were selected by culture in the medium containing G418 (1 mg/mL, LIFE TECHNOLOGIES), and then the activity against the uptake of methyl-α-D-glucopyranoside was measured by the method described below. […] CS1-5–11D cells were cultured in the presence of G418 at 200 μg/mL.
3) Measurement of the Inhibitory Activity Against the Uptake of methyl-α-D-glucopyranoside (α-MG)
CS1-5-11D cells were seeded into a 96-well culture plate at a density of 3×10^4 cells/well and cultured for 2 days, and were used in the uptake assay. A mixture of non-labeled (Sigma) and ^14C-labeled α-MG (Amersham Pharmcia Biotec) added to the uptake buffer (pH 7.4; containing 140 mM sodium chloride, 2 mM potassium chloride, 1 mM calcium chloride, 1 mM magnesium chloride, 10 mM 2-[4-(2-hydroxyethyl)-1-piperazinyl]ethane sulfonic acid, and 5 mM tris(hydroxymethyl)aminomethane) at the final concentration of 1 mM. A test compound was dissolved in dimethyl sulfoxide, and then appropriately diluted with distilled water. The test compound solution was added to the uptake buffer containing 1 mM α-MG, and designated as a measurement buffer. For the control group, the measurement buffer without any test compound was prepared. For measuring the basal uptake, a basal buffer which contains 140 mM chorine chloride instead of 140 mM sodium chloride was prepared. After removing the culture medium of CS1-5-11D cells, 180 μL of the pre-treatment buffer (the uptake buffer not containing α-MG) was added to each well and incubated at 37° C. for 10 minutes. After repeating the same treatment, the pre-treatment buffer was removed. To each well was added 75 μL of the measurement buffer or the basal buffer was added and incubated at 37° C. for 1 hour. After removing the measurement buffer, cells were washed twice with 180 μL per well of the washing buffer (the basal buffer containing 10 mM non-labeled α-MG). The cells were solubilized by 75 μL per well of 0.2 mol/L sodium hydroxide. The cell lysates were transferred into PicoPlates (Packard), and then added 150 μL of MicroScint-40 (Packard) and mixed. Radioactivity was measured by means of micro-scintillation counter TopCount (Packard). One hundred % was set to the difference between the uptake in the control group and the basal uptake, and the uptake of methyl α-D-glucopyranoside at each drug concentration were calculated. The drug concentration, at which 50% uptake of methyl α-D-glucopyranoside was inhibited (IC50 value), was calculated using logit plot.

[2] = system: diabetic rats; experiment: Assay for inhibitory effects on blood glucose level increase in rats (liquid meal tolerance test); assay type: in vivo; settings: diabetic rats (nicotinamide/streptozotocin), 10 mg/kg orally, liquid meal 15 kcal/kg, mean±S.E.
Protocol: Assay for Inhibitory Effects on Blood Glucose Level Increase in Rats
1) Preparation of Diabetic Rat Model
Ten weeks old rats were injected nicotinamide (230 mg/kg) intraperitoneally. Fifteen minutes after injection, they were injected streptozotocin (65 mg/kg) intravenously from tail vain under anesthesia with ether. Two weeks later, rats were fasted for 5 hours and then oral glucose tolerance test (2 g/kg) was done.
2) Liquid Meal Tolerance Test
After 16 hours fasted, the diabetic rats were orally administered a test compound (10 mg/kg), which was suspended with 0.5% sodium carboxymethylcellulose (CMC), in the drug-treating group, or 0.5% sodium carboxymethylcellulose (CMC) alone in a control group. Immediately after the compound administration, 15 kcal/kg of liquid meal (No. 038, Conrol diet, assorted with dextrin and maltose; Oriental Yeast Co., Ltd.) was loaded orally. The blood was collected from tail artery immediately before (0 h), at 0.5 and 1 hour after administration, and treated with heparin immediately. The blood was centrifuged, and the plasma was collected to quantify the plasma glucose concentration. The values in the table are presented as the mean±S.E.

[3] = system: Male C57BL/6J mice; experiment: Acute toxicity test; assay type: in vivo; settings: n=5, oral 1 g/kg, observed for 48 hours
Protocol: Male C57BL/6J mice (CLEA Japan, Inc.; 17 weeks old, 20–23 g, n=5) were fasted for 4 hours.

Row | SMILES | IC50 [1] [nM] | other results
1 | CC(C)c1[nH]nc(O[C@@H]2O[C@H](CO)[C@@H](O)[C@H](O)[C@H]2O)c1Cc1ccccc1OCc1ccccc1 [Example 2, 4-(2-Benzyloxybenzyl)-3-(β-D-glucopyranosyloxy)-5-isopropyl-1H-pyrazole] | 18 | Plasma glucose concentration ([2]; 0 h (pretreatment)): 126 ± 7 mg/dL; Plasma glucose concentration ([2]; 0.5 h after administration): 194 ± 7 mg/dL; Plasma glucose concentration ([2]; 1 h after administration): 219 ± 16 mg/dL; Number of death [3]: 0/5
2 | CC(C)c1c(Cc2ccccc2OCc2ccccc2)c(O[C@@H]2O[C@H](CO)[C@@H](O)[C@H](O)[C@H]2O)nn1CCO [Example 9, 4-(2-Benzyloxybenzyl)-3-(β-D-glucopyranosyloxy)-1-(2-hydroxyethyl)-5-isopropyl-1H-pyrazole] | 8 | 
3 | OCCn1nc(O[C@@H]2O[C@H](CO)[C@@H](O)[C@H](O)[C@H]2O)c(Cc2ccccc2OCc2ccccc2)c1C(F)(F)F [Example 11, 4-(2-Benzyloxybenzyl)-3-(β-D-glucopyranosyloxy)-1-(2-hydroxyethyl)-5-trifluoromethyl-1H-pyrazole] | 13 | 
4 | CC(C)c1[nH]nc(O[C@@H]2O[C@H](CO)[C@@H](O)[C@H](O)[C@H]2O)c1Cc1ccccc1OCc1cccc(O)c1 [Example 12, 3-(β-D-Glucopyranosyloxy)-4-[2-(3-hydroxybenzyloxy)benzyl]-5-isopropyl-1H-pyrazole] | 35 | 

Further lines, with some results ahead:

Row | IC50 [1] [nM] | SMILES | other results
5 | 30 | OCCCn1nc(O[C@@H]2O[C@H](CO)[C@@H](O)[C@H](O)[C@H]2O)c(Cc2ccccc2OCc2ccccc2)c1C(F)(F)F [Example 13, 4-(2-Benzyloxybenzyl)-3-(β-D-glucopyranosyloxy)-1-(3-hydroxypropyl)-5-trifluoromethyl-1H-pyrazole] | 
6 | 1 | CC(C)c1[nH]nc(O[C@@H]2O[C@H](CO)[C@@H](O)[C@H](O)[C@H]2O)c1Cc1ccccc1OCc1cccc(Cl)c1 [Example 15, 4-[2-(3-Chlorobenzyloxy)benzyl]-3-(β-D-glucopyranosyloxy)-5-isopropyl-1H-pyrazole] | 
7 | 80 | CCc1c(Cc2ccccc2OCc2ccccc2)c(O[C@@H]2O[C@H](CO)[C@@H](O)[C@H](O)[C@H]2O)nn1CCO [Example 19, 4-(2-Benzyloxybenzyl)-5-ethyl-3-(β-D-glucopyranosyloxy)-1-(2-hydroxyethyl)-1H-pyrazole] | 
8 | 14 | OC[C@H]1O[C@@H](Oc2n[nH]c(C(F)(F)F)c2Cc2ccccc2OCc2ccccc2)[C@H](O)[C@@H](O)[C@@H]1O [Example 21, 4-(2-Benzyloxybenzyl)-3-(β-D-glucopyranosyloxy)-5-trifluoromethyl-1H-pyrazole] | 
9 | 194 | CC(C)c1[nH]nc(O[C@@H]2O[C@H](CO)[C@@H](O)[C@H](O)[C@H]2O)c1Cc1ccccc1OC1CCCCCC1 [Example 51, 4-(2-Cycloheptyloxybenzyl)-3-(β-D-glucopyranosyloxy)-5-isopropyl-1H-pyrazole] | 
